According to ChEMBL document CHEMBL4715766, “Systemic structure-activity relationship study of phenyl polyyne diols as potential chemopreventive agents” (Bioorg Med Chem Lett, 2016):
pIC50: −log10 of the molar value.

Assays:
[1] = Chemopreventive index, ratio of IC50 for mouse Hepa-1c1c7 cells to drug level required to double NADPH:quinone reductase activity in mouse Hepa-1c1c7 cells
[2] = molecular target: NAD(P)H dehydrogenase [quinone] 1 (Mus musculus) (UniProt Q64669); conditions: Hepa1c1c7, filed as activator
Chain of NAD(P)H dehydrogenase [quinone] 1 (Mus musculus) (Q64669 whole entry): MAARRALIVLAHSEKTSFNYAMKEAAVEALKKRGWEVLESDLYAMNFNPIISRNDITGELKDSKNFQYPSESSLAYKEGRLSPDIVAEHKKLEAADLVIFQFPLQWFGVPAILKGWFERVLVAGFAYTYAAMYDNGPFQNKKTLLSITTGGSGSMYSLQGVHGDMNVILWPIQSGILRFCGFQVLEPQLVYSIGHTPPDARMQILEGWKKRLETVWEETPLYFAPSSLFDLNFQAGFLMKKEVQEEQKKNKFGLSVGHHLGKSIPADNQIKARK
Description: Induction of quinone reductase activity in mouse Hepa1c1c7 cells

[3] = Cytotoxicity against mouse Hepa1c1c7 cells; type: cell-based; conditions: Hepa-1c1c7

Compound	Ratio [1]	CD [2] [µM]	pIC50 [3]
C[S+]([O-])CCCCN=C=S (centres undefined) [SULFORAPHANE]	29.5	0.5	
CCCCCC(O)C#CC#CC(O)c1ccc2c(c1)OCO2 (centres undefined)	>28.2		< 4.30
